Measurements from ChEMBL document CHEMBL6109039, “Designed and synthesized novel tripeptides targeting diabetes and its related pathologies” (Eur J Med Chem, 2025).

Legend:
Albumin [1] = target: T1, Albumin (Homo sapiens, UniProt P02768); experiment: Inhibition of D-glucose glycation in human serum albumin model by measuring ketoamine moieties incubated for 14 days by Nitroblue tetrazolium (NBT) reduction assay (reference value: 28.69 nmol/mL); settings: 336 h, time 14 day
Albumin [2] = target: T1, Albumin; experiment: Inhibition of D-glucose glycation in human serum albumin model by measuring absorbance at 279 nm incubated for 7 days by UV spectroscopic analysis (reference value: […]); settings: 168 h, time 7 day
Albumin [3] = target: T1, Albumin; experiment: Inhibition of D-glucose glycation in human serum albumin model by measuring ketoamine moieties incubated for 3 days by Nitroblue tetrazolium (NBT) reduction assay (reference value: 24.27 nmol/mL); settings: 72 h, time 3 day
Albumin [4] = target: T1, Albumin; experiment: Inhibition of D-fructose glycation in human serum albumin model by measuring ketoamine moieties incubated for 7 days by Nitroblue tetrazolium (NBT) reduction assay (reference value: 125.33 nmol/mL); settings: 168 h, time 7 day
Albumin [5] = target: T1, Albumin; experiment: Inhibition of D-fructose glycation in human serum albumin model by measuring absorbance at 279 nm incubated for 33 days by UV spectroscopic analysis (Rvb =2.222); settings: 792 h, time 33 day
Albumin [6] = target: T1, Albumin; experiment: Inhibition of D-fructose glycation in human serum albumin model by measuring ketoamine moieties incubated for 5 days by Nitroblue tetrazolium (NBT) reduction assay (reference value: 111.94 nmol/mL); settings: 120 h, time 5 day
Albumin [7] = target: T1, Albumin; experiment: Inhibition of D-glucose glycation in human serum albumin model incubated for 14 days by UV spectroscopic analysis relative to control; settings: 336 h, time 14 day
Albumin [8] = target: T1, Albumin; experiment: Inhibition of D-glucose glycation in human serum albumin model by measuring absorbance at 279 nm incubated for 26 days by UV spectroscopic analysis (reference value: 2.301); settings: 624 h, time 26 day
Albumin [9] = target: T1, Albumin; experiment: Inhibition of D-fructose glycation in human serum albumin model by measuring absorbance at 279 nm incubated for 5 days by UV spectroscopic analysis (reference value: 1.056); settings: 120 h, time 5 day
Albumin [10] = target: T1, Albumin; experiment: Inhibition of D-fructose glycation in human serum albumin model by measuring ketoamine moieties incubated for 30 days by Nitroblue tetrazolium (NBT) reduction assay (reference value: 128.71 nmol/mL); settings: 720 h, time 30 day
Albumin [11] = target: T1, Albumin; experiment: Inhibition of D-fructose glycation in human serum albumin model by measuring ketoamine moieties incubated for 14 days by Nitroblue tetrazolium (NBT) reduction assay (reference value: 129.58 nmol/mL); settings: 336 h, time 14 day
Albumin [12] = target: T1, Albumin; experiment: Inhibition of D-fructose glycation in human serum albumin model by measuring absorbance at 279 nm incubated for 14 days by UV spectroscopic analysis (reference value: 2.333); settings: 336 h, time 14 day
Albumin [13] = target: T1, Albumin; experiment: Inhibition of D-fructose glycation in human serum albumin model assessed as reduction in fluorescence intensity incubated for 3 days by UV spectroscopic analysis relative to control; settings: 72 h, time 3 day
Albumin [14] = target: T1, Albumin; experiment: Inhibition of D-fructose glycation in human serum albumin model by measuring absorbance at 279 nm incubated for 7 days by UV spectroscopic analysis (reference value: 1.072); settings: 168 h, time 7 day
Albumin [15] = target: T1, Albumin; experiment: Inhibition of D-glucose glycation in human serum albumin by measuring absorbance at 279 nm model incubated for 14 days by UV spectroscopic analysis (reference value: 2.302); settings: 336 h, time 14 day
Albumin [16] = target: T1, Albumin; experiment: Inhibition of D-glucose glycation in human serum albumin model by measuring ketoamine moieties incubated for 30 days by Nitroblue tetrazolium (NBT) reduction assay (reference value: 27.85 nmol/mL); settings: 720 h, time 30 day
Albumin [17] = target: T1, Albumin; experiment: Inhibition of D-fructose glycation in human serum albumin model incubated for 14 days by UV spectroscopic analysis relative to control; settings: 336 h, time 14 day
Albumin [18] = target: T1, Albumin; experiment: Inhibition of D-glucose glycation in human serum albumin model by measuring absorbance at 279 nm incubated for 5 days by UV spectroscopic analysis (reference value: 0.741); settings: 120 h, time 5 day
Albumin [19] = target: T1, Albumin; experiment: Inhibition of D-glucose glycation in human serum albumin model by measuring ketoamine moieties incubated for 7 days by Nitroblue tetrazolium (NBT) reduction assay (reference value: 35.92 nmol/mL); settings: 168 h, time 7 day
Albumin [20] = target: T1, Albumin; experiment: Inhibition of D-fructose glycation in human serum albumin model by measuring absorbance at 279 nm incubated for 26 days by UV spectroscopic analysis (reference value: 2.267); settings: 624 h, time 26 day
Albumin [21] = target: T1, Albumin; experiment: Inhibition of D-glucose glycation in human serum albumin model by measuring absorbance at 279 nm incubated for 33 days by UV spectroscopic analysis (reference value: 1.997); settings: 792 h, time 33 day
Albumin [22] = target: T1, Albumin; experiment: Inhibition of D-fructose glycation in human serum albumin model by measuring absorbance at 279 nm incubated for 30 days by UV spectroscopic analysis (reference value: 2.323); settings: 720 h, time 30 day
Albumin [23] = target: T1, Albumin; experiment: Inhibition of D-fructose glycation in human serum albumin model by measuring absorbance at 279 nm incubated for 3 days by UV spectroscopic analysis (reference value: 0.492); settings: 72 h, time 3 day
Albumin [24] = target: T1, Albumin; experiment: Inhibition of D-glucose glycation in human serum albumin model by measuring absorbance at 279 nm incubated for 30 days by UV spectroscopic analysis (reference value: 2.295); settings: 720 h, time 30 day
Albumin [25] = target: T1, Albumin; experiment: Inhibition of D-glucose glycation in human serum albumin model by measuring ketoamine moieties incubated for 5 days by Nitroblue tetrazolium (NBT) reduction assay (reference value: 18.58 nmol/mL); settings: 120 h, time 5 day
Albumin [26] = target: T1, Albumin; experiment: Inhibition of D-fructose glycation in human serum albumin model by measuring ketoamine moieties incubated for 26 days by Nitroblue tetrazolium (NBT) reduction assay (reference value: 118.21 nmol/mL); settings: 624 h, time 26 day
Albumin [27] = target: T1, Albumin; experiment: Inhibition of D-glucose glycation in human serum albumin model assessed as reduction in fluorescence intensity incubated for 3 days by UV spectroscopic analysis relative to control; settings: 72 h, time 3 day
Albumin [28] = target: T1, Albumin; experiment: Inhibition of D-glucose glycation in human serum albumin model by measuring ketoamine moieties incubated for 26 days by Nitroblue tetrazolium (NBT) reduction assay (reference value: 28.79 nmol/mL); settings: 624 h, time 26 day
Albumin [29] = target: T1, Albumin; experiment: Inhibition of D-glucose glycation in human serum albumin model by measuring absorbance at 279 nm incubated for 3 days by UV spectroscopic analysis (reference value: 0.562); settings: 72 h, time 3 day
Albumin [30] = target: T1, Albumin; experiment: Inhibition of D-fructose glycation in human serum albumin model by measuring ketoamine moieties incubated for 3 days by Nitroblue tetrazolium (NBT) reduction assay (reference value: 152.64 nmol/mL); settings: 72 h, time 3 day
Albumin [31] = target: T1, Albumin; experiment: Inhibition of D-fructose glycation in human serum albumin model by measuring ketoamine moieties incubated for 33 days by Nitroblue tetrazolium (NBT) reduction assay (reference value: 144.33 nmol/mL); settings: 792 h, time 33 day
Albumin [32] = target: T1, Albumin; experiment: Inhibition of D-glucose glycation in human serum albumin model by measuring ketoamine moieties incubated for 33 days by Nitroblue tetrazolium (NBT) reduction assay (reference value: 66.64 nmol/mL); settings: 792 h, time 33 day

T1 sequence (P02768 whole entry): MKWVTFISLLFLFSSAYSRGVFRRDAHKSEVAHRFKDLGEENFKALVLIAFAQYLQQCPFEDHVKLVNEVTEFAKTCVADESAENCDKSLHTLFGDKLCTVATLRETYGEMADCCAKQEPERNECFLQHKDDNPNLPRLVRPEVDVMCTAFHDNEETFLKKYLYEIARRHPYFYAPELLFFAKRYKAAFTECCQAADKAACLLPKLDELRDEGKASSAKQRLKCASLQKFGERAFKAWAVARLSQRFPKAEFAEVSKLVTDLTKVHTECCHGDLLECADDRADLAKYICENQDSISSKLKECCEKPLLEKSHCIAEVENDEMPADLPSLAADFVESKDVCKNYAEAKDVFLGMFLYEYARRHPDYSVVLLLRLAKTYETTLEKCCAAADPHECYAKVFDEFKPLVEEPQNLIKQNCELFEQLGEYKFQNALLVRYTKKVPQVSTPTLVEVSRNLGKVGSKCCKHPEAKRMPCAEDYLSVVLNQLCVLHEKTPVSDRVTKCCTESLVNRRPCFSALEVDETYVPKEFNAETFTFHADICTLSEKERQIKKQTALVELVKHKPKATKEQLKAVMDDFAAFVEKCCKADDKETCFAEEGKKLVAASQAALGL

For `NCCC(=O)N[C@@H](Cc1cnc[nH]1)C(=O)O` [CARNOSINE], the Activity (Albumin [1]) was 25.34 nmol/mL, the OD (Albumin [2]) was 0.609 and the Activity (Albumin [3]) was 20.51 nmol/mL. The Activity (Albumin [4]) was 119.64 nmol/mL, the OD (Albumin [5]) was 2.173 and the Activity (Albumin [6]) was 105.35 nmol/mL. For the same compound, the “inhibition (INH)” value (Albumin [7]) was 41.84%, the OD (Albumin [8]) was 2.274 and the OD (Albumin [9]) was 1.024. The Activity (Albumin [10]) was 123.84 nmol/mL, the Activity (Albumin [11]) was 124.63 nmol/mL and the OD (Albumin [12]) was 1.872. The “inhibition (INH)” value (Albumin [13]) was 27.77%, the OD (Albumin [14]) was 0.756 and the OD (Albumin [15]) was 1.662. For the same compound, the Activity (Albumin [16]) was 24.69 nmol/mL, the “inhibition (INH)” value (Albumin [17]) was 1.59% and the OD (Albumin [18]) was 0.684. It also gave an Activity (Albumin [19]) of 19.93 nmol/mL, an OD (Albumin [20]) of 2.127 and an OD (Albumin [21]) of 1.853. For the same compound, the OD (Albumin [22]) was 1.866, the OD (Albumin [23]) was 0.487 and the OD (Albumin [24]) was 1.654. For the same compound, the Activity (Albumin [25]) was 17.43 nmol/mL, the Activity (Albumin [26]) was 113.02 nmol/mL and the “inhibition (INH)” value (Albumin [27]) was 52.1%. The Activity (Albumin [28]) was 27.61 nmol/mL, the OD (Albumin [29]) was 0.562 and the Activity (Albumin [30]) was 144.52 nmol/mL. It also gave an Activity (Albumin [31]) of 143.12 nmol/mL and an Activity (Albumin [32]) of 36.79 nmol/mL.
